Measurements as given in ChEMBL document CHEMBL1157463, “Interaction of methimazole with I2: X-ray crystal structure of the charge transfer complex methimazole-I2. implications for the mechanism of action of methimazole-based antithyroid drugs” (J Med Chem, 2008).
pIC50: −log10 of the molar value.

Experiment: Antioxidant activity assessed as inhibition of lactoperoxidase-catalyzed oxidation of 2,2'-azinobis([…])
Type: functional

Row | Structure (SMILES) | pIC50
1 | Cn1cc[nH][c+]1SS[c+]1[nH]ccn1C.[O-][Cl+3]([O-])([O-])[O-].[O-][Cl+3]([O-])([O-])[O-] | 5.85
2 | Cn1ccnc1S [METHIMAZOLE] | 5.25
